{"source": "patent US8765181B2", "about": "“Nano anticancer micelles of vinca alkaloids entrapped in polyethylene glycolylated phospholipids” (Beijing Diacrid Medical Technology Co., Ltd, priority 2005, dated 2014)", "test_system": "Lewis lung cancer cells", "assay": "Tumor growth inhibition assay in vivo of vinorelbine micellar preparation", "set-up": "species or system Balb/c mice", "conditions": "for Volume of tumor (mm^3): 5 mg/kg iv on the 1st, 8th and 15th day", "method": "Fresh Lewis lung cancer cells (ATTC, CRL-1642) were inoculated subcutaneously into the axillary region of right forelimb of Balb/c mice (1×10^7/ml, 0.2 ml/mice). The mice (17-19 g, female) bearing tumor were then randomly divided into three groups, i.e. control group, free vinorelbine group (F-VNR) and vinorelbine micelle group (M-VNR), 6 mice each group. Administration was carried out on the next day to the inoculation. The doses of both F-VNR and M-VNR were 5 mg/kg (drug concentration: 0.5 mg/ml), iv volume 0.1 ml/10 g body weight, and the dose of the control group was iv 0.1 ml/10 g body weight of physiological saline. Dosing was performed once a week and continued for three weeks (dosing on the 1st, 8th and 15th day, respectively), wherein the length (a) and width (b) of the tumors were measured with vernier caliper on the 7th, 10th, 14th, 17th, and 21th day, respectively. The volume of the tumor was calculated according the formula V=a×b^2/2. […] The experiment results were shown in FIG. 5 as well as following table."}
{"smiles": "CCC1=C[C@@H]2CN(C1)Cc1c([nH]c3ccccc13)[C@@](C(=O)OC)(c1cc3c(cc1OC)N(C)[C@H]1[C@@](O)(C(=O)OC)[C@H](OC(C)=O)[C@]4(CC)C=CCN5CC[C@]31[C@@H]54)C2", "note": "[F-VNR, vinorelbine]", "values": [{"measurement": "effect on growth of Lewis lung cancer tumor (in words)", "setting": "5 mg/kg iv once a week for three weeks", "value": "almost ineffective"}, {"measurement": "Volume of tumor (mm^3)", "setting": "7 days", "value": "217 ± 94.5", "unit": "mm^3"}, {"measurement": "Volume of tumor (mm^3)", "setting": "10 days", "value": "810.3 ± 407.6", "unit": "mm^3"}, {"measurement": "Volume of tumor (mm^3)", "setting": "14 days", "value": "1694.3 ± 789.1", "unit": "mm^3"}, {"measurement": "Volume of tumor (mm^3)", "setting": "17 days", "value": "2460.1 ± 1367.1", "unit": "mm^3"}, {"measurement": "Volume of tumor (mm^3)", "setting": "21 days", "value": "5163 ± 2623.8", "unit": "mm^3"}]}
